Experiment: Solubility of test articles in HBSS assay buffer
Settings: at all tested concentrations; highest tested concentration 10 μM
Procedure: Before the experiment, the medium was removed and the cells were washed twice with 100 μL of HBSS without Cl^−. Uptake experiments were carried out at 37±1° C. in 50 μL of HBSS without Cl^−, pH 7.4 containing the probe substrate (20 μM uric acid) and the test article (TA) or solvent.

Row | solubility in HBSS buffer | Compound
1 | soluble | CCc1oc2ccccc2c1C(=O)c1cc(Br)c(O)c(Br)c1 [Benzbromarone]
2 | soluble | [2H]c1c([2H])c([2H])c2c(C(=O)c3cc(Br)c(O)c(Br)c3)c(C(C)O)oc2c1[2H] (centres unmarked) [Compound 1, (3,5-dibromo-4-hydroxyphenyl)(2-(1-hydroxyethyl)benzofuran-3-yl-4,5,6,7-d4)methanone]

— patent US20250100988A1, “PREPARATION OF A COMPOUND FOR THE TREATMENT OF GOUT OR HYPERURICEMIA” (Arthrosi Therapeutics, Inc., priority 2021, published 2025)
